Measurements published in PubChem BioAssay (NCI).
Values joined by “and” are separate entries in the source; they are usually repeats but may differ in a detail not shown here. Equal entries are not always repeated.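 How tested: cells in 96-well plates exposed to compound for 48 hours at five concentrations. GI50 marks 50% less growth. TGI: total growth inhibition.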

Legend:
Test in all cases: growth of human tumour cells (NCI), 48 h
786-0 renal = tested on: 786-0 renal
A498 renal = tested on: A498 renal
COLO 205 colon = tested on: COLO 205 colon
HCC-2998 colon = tested on: HCC-2998 colon
HOP-62 NSCLC = tested on: HOP-62 NSCLC
MALME-3M melanoma = tested on: MALME-3M melanoma
MDA-MB-435 = tested on: MDA-MB-435
SF-268 CNS = tested on: SF-268 CNS
SNB-19 CNS = tested on: SNB-19 CNS
TK-10 renal = tested on: TK-10 renal

Row | SMILES | TGI (786-0 renal) [µM] | TGI (A498 renal) | TGI (COLO 205 colon) [µM] | TGI (HCC-2998 colon) [µM] | TGI (HOP-62 NSCLC) [µM] | TGI (MALME-3M melanoma) [µM] | TGI (MDA-MB-435) [µM] | TGI (SF-268 CNS) [µM] | TGI (SNB-19 CNS) [µM] | TGI (TK-10 renal) [µM] | GI50 (SNB-19 CNS) [µM] | GI50 (HCC-2998 colon) [µM] | GI50 (A498 renal)
1 | COc1cc2[nH]c(=O)c3cc(-c4ccccc4)cc4c(Cl)nc(c1OC)c2c43 | > 49.2 | > 100 µM | 38.5 | > 86.4 | > 72.7 | 17.1 | 8.84 | > 55.9 | > 82.8 | > 70 |  |  | 
2 | COc1ccc(C2=C(Cl)C(=O)O/C2=C\c2ccc(OC)c(Br)c2)cc1Cl | 39.1 | 52.9 µM | > 100 | > 100 | 30.8 | > 100 | > 100 | 38 | 80.6 | 38.3 |  |  | 
3 | Cc1nnc2n1-c1ccccc1N(Cc1ccccc1)CC2 | > 100 | > 100 µM | > 100 | > 100 | > 100 | > 100 | > 100 | > 100 | > 100 | > 100 |  |  | 
4 | Cn1nc2c(c1N)Cc1c(nn(C)c1N)-c1ccccc1-2 | > 100 | > 100 µM | > 100 | > 100 | > 100 | > 100 | > 100 | > 100 | > 100 | > 100 |  |  | 
5 | Cc1cc(OCc2nnc3sc(NC(=O)c4ccccc4)nn23)ccc1Cl | > 100 | > 100 µM | > 100 | 90.2 | 48.2 | 42.2 | 50.2 | > 100 | > 100 | > 100 |  |  | 
6 | COc1cc2c3c(cc(Cl)nc3c1OC)C(=O)C(=O)N2 | 13.4 | 30.2 µM | 51 | 33.6 | 34.7 | 3.82 | 3.37 | 31.6 | 42.6 | 33.4 |  |  | 
7 | CCOC(=O)/C=C(/C=C\COC1CCCCO1)c1ccccc1 (stereo not drawn) | 62.7 | > 100 µM | > 100 | > 100 | > 100 | > 100 | > 100 | > 100 | > 100 | > 100 |  |  | 
8 | C=C(C)[C@H]1CC(=O)/C(C)=C\CC/C(C)=C/CC[C@@]2(C)O[C@@H]2C1 | > 100 | > 100 µM | 32 | 93.1 | > 100 | 88.7 | 35 | 61.2 | > 100 | 76.5 |  |  | 
9 | C=C1C[C@@H]2CC[C@@]34C[C@H]5O[C@H]6[C@@H](O3)[C@H]3O[C@H](CC[C@@H]3O[C@H]6[C@H]5O4)CC(=O)C[C@@H]3[C@@H](OC)[C@@H](C[C@H](O)CN)O[C@H]3C[C@H]3O[C@@H](CC[C@@H]1O2)C[C@@H](C)C3=C | > 1 | 0.245 µM | 0.00193 | 0.096 | > 1 | > 1 | 0.000274 | > 1 | > 1 | > 1 | 0.00127 |  | 
10 | Cc1cc(S(=O)(=O)Nc2n[nH]c(Nc3ccccc3)n2)c(SCC(=O)O)cc1Cl | > 100 | > 100 µM | > 100 | > 100 | > 100 | > 100 | > 100 | > 100 | > 100 | > 100 |  |  | 
11 | O=CN1CCN(C(=O)c2ccco2)C1=S | 12.6 | 39.7 µM | 24.4 | 27.2 | 36.2 | 29.9 | 19.7 | 28.8 | > 70.6 | 31 |  | 13.4 | 
12 | CCOc1ccc(N=Nc2ccc3cc(/C(C)=N/NC(=O)/C(C#N)=C\c4ccc(N(CCC#N)CCC#N)cc4)c(=O)oc3c2)cc1 | > 10 | > 10 µM | > 10 | > 10 | > 10 | > 10 | > 10 | > 10 | > 10 | > 10 |  |  | 
13 | O=C1/C(=C/c2ccncc2)C(n2cccc2)c2c(Br)sc(Br)c21 (stereo not drawn) | 11.5 | 39 µM | 28.6 | 3.45 | 11.3 | 10.9 | 4.66 | 11 | 30.6 | 14.6 |  |  | 
14 | CCOc1snc(C(Cl)(Cl)Cl)c1Cl | > 100 | 62.8 µM | 48.4 | 63.3 | > 100 | 80.2 | > 100 | 46.1 | 74.9 | > 100 |  |  | 
15 | COC(=O)C1=C(C)NC(C)=C(C(=O)OC)C1c1cccc(N=O)c1 | 30.3 | 98.2 µM | 32.6 | 45.9 | 56.2 | 28.8 | 29.7 | 30.8 | > 100 | 28.2 |  |  | 
16 | O=[N+]([O-])/C(Cl)=C(/C(Cl)=C(Cl)Cl)N1CCCCC1 | 23.4 | 33.4 µM | 22.7 | 33.4 | 40.8 | 11.6 | 20.8 | 75.1 | 54.1 | 35.8 |  |  | 
17 | CC(=O)OCC(=O)O[C@@H]1[C@H]2[C@@H](OC(=O)c3ccccc3)[C@@H](C)C[C@]2(O)[C@H](OC(C)=O)[C@@]2(C)C[C@]1(OC(C)=O)C[C@H]1C(=O)C(C)(C)[C@@H](OC(C)=O)[C@@H]12 | > 25 | > 23.8 µM | > 25 | > 25 | > 25 | > 25 | > 25 | > 25 | > 25 | > 25 |  |  | 
18 | CCOc1ccc(NCC2CC/C(=C\C=C\c3ccccc3)C2=O)cc1 (stereo not drawn) | 13.5 | > 100 µM | 31.7 | > 72.4 | > 62 | 57.8 | 30.4 | 24.2 | 60.9 | > 50.7 |  |  | 
19 | CC[N+]1(C)CCC(O)(c2ccc(C)cc2)C(C(=O)c2ccc(C)cc2)C1 (stereo not drawn) | 34.6 | > 100 µM | 55.7 | > 100 | > 100 | 52.7 | > 100 | > 100 | > 100 | 47.5 |  |  | 
20 | COc1ccc(C2Oc3c(OC)cc(CCCO)cc3C2CO)cc1OC (stereo not drawn) | > 100 | 88 µM and > 100 µM | > 100 | > 100 | > 100 | > 100 | > 100 | > 100 | > 100 | > 100 |  |  | 26.1 µM and 73.4 µM
21 | S=c1[nH]nc(Cn2c3ccc(Br)cc3c3nc4ccccc4nc32)n1C1CCCCC1 | 54.8 | 58.1 µM | > 59.8 | 61 | > 63.5 | 72.7 | > 100 | > 100 | > 96.7 | > 95.1 |  |  | 
22 | Cc1nc(SCC(N)=O)c2sc(=S)n(-c3ccccc3)c2n1 | > 10 | > 10 µM | > 10 | > 10 | > 10 | > 10 | > 10 | > 10 | > 10 | > 10 |  |  | 
23 | CC1(C)OC[C@@H](C[C@H](O)COCc2ccccc2)O1 | > 100 | > 100 µM | > 100 | > 100 | > 100 | > 100 | > 100 | > 100 | > 100 | > 100 |  |  | 
24 | O=C1CS/C(=N/N=C/c2cn(Cc3ccc(Cl)cc3Cl)c3ccccc23)N1 | 53.2 | 46.5 µM | > 100 | 92.3 | > 100 | > 100 | > 100 | > 100 | > 100 | > 100 |  |  | 
25 | CCCCCCCCCCCCNC(=O)CCC(NC(=O)c1ccc(N(C)Cc2cnc3nc(N)nc(N)c3n2)cc1)C(=O)NCCCCCCCCCCCC (stereo not drawn) | > 100 | > 100 µM | > 100 | > 100 | 95.6 | > 100 | > 100 | > 100 | 72.1 | > 100 |  |  | 
26 | Clc1cc(C(c2cc(Cl)sc2Cl)c2cc(Cl)sc2Cl)c(Cl)s1 | > 100 | > 100 µM | > 100 | > 100 | > 100 | > 100 | > 100 | > 100 | > 100 | > 100 |  |  | 
